The source of these data is ChEMBL document CHEMBL3124797, “Copper complexes with phosphonium containing hydrazone ligand: topoisomerase inhibition and cytotoxicity study” (Eur J Med Chem, 2014).

Bounds are passed on as bounds.

The subject of one experiment is A549. Put plainly: Cytotoxicity against human A549 cells after 72 hrs by MTT assay. The class given is functional, cell-based. As to conditions: A549, 72 h.
The next experiment concerns PC-3. Put plainly: Cytotoxicity against human PC3 cells after 72 hrs by MTT assay. Conditions: PC-3, 72 h. The format is functional, cell-based.
The subject of experiment [1] is MRC5. The experiment can be described thus: Cytotoxicity against human MRC5 cells after 72 hrs by MTT assay. The format is cell-based. Conditions: MRC5, 72 h.
In experiment [2] the test system is MRC5. The experiment can be described thus: Selectivity index, ratio of IC50 for human MRC5 cells to IC50 for human PC3 cells. The format is functional.

For `O=Cc1cc(C[P+](c2ccccc2)(c2ccccc2)c2ccccc2)ccc1O`, the half-maximal inhibitory concentration (IC50) in the experiment with A549, in the experiment on PC-3 and in the experiment with MRC5 [1] was greater than 30 µM each time.

On to `O.O=C(N/N=C/c1cc(C[P+](c2ccccc2)(c2ccccc2)c2ccccc2)ccc1O)c1ccccc1.[Cl-]`, for which the IC50 in the experiment on A549 was greater than 30 µM; with PC-3, 14.4 µM; with MRC5 [1] it was 12.2 µM. The “Ratio IC50” value in the experiment with MRC5 [2] was determined as 0.85.
